Assay results from patent US6949679B1, “Polyamine transport inhibitors” (Universite Laval, priority 1998, dated 2005).
Like-named read-outs stand apart in the source and are kept apart here. Each block holds one compound with its values, some of them ahead of it.

Experiments:
[1] = test system: ZR-75-1 cells; assay: Intracellular accumulation of inhibitor and polyamine contents (HPLC) in ZR-75-1 cells; format: cell-based, human; conditions: ZR-75-1 cells, 6-hour incubation, HPLC of cell extracts
[2] = in vitro; conditions: human
From the text: FIG. 34 represents the relative cytotoxicity of sym-norspermidine (NSpd), BABAC and TADAX in ZR-75-1 human breast cancer cells. Data are the mean±SD of triplicate determinations from a representative experiment.

[3] = test system: polyamine transporter; assay: Inhibition of [14C]spermine uptake in ZR-75-1 cells; format: cell-based, human; conditions: 3μM substrate (Example 11), read-out: Ki, [14C]spermine transport
[4] = test system: ZR-75-1 cells; assay: Reversal of DFMO-induced growth inhibition by exogenous spermidine; format: cell-based, human; conditions: Homo sapiens, ZR-75-1, 264 h; 1 mM DFMO, 11-day incubation
Experimental: (§1) For growth studies, ZR-75-1 cells were cultured in MEZR medium or in phenol red-free RPMI 1640 supplemented with 2 mM L-glutamine, 1 mM sodium pyruvate, 15 mM Hepes, antibiotics, 1 nM 17β-estradiol, 0.5 μg of bovine insulin per ml and 5% (v/v) charcoal-treated fetal bovine serum (SD medium), as indicated in the text. When polyamines or polyamine analogs were added to serum-containing media, 1 mM aminoguanidine was added to inhibit bovine serum amine oxidase (BSAO) activity (Morgan, D. M. L. 1989, in The Physiology of Polyamines (Bachrach, U., and Heimer, Y. M. eds) Vol. I, pp. 203-229, CRC Press, Boca Raton). The effect of the transport inhibitors on cell growth was measured by incubating ZR-75-1 cells for 11 days in medium supplemented with antagonist, polyamines and/or 1 mM DFMO as indicated, followed by colorimetric determination of DNA content with 3,4-diaminobenzoic acid (Simard, J., Dauvois, S., Haagensen, D. E., Lėvesque C., Mėrand, Y. and Labriė, F. 1990. Endocrinology 126: 3223-3231).
This possibility was assessed by comparing the ability of DESC to prevent the reversal of DFMO-induced growth inhibition by increasing concentrations of exogenous spermidine.

[5] = test system: polyamine transporter; assay: Inhibition of [3H]putrescine uptake in ZR-75-1 cells; format: cell-based, human; conditions: for Ki: ZR-75-1 cells
Experimental: (§2) The rate of putrescine and spermidine transport was determined in ZR-75-1 cells incubated in serum-free RPMI 1640 medium as described (Lessard, M., Zhao, C., Singh, S. M. and Poulin, R. 1995. J. Biol. Chem. 270: 1685-1694), using [^3H]putrescine (30 Ci/mol) and [^3H]spermidine (20 Ci/mol), respectively as substrates for a 20 minute-assay period. Spermine uptake was similarly determined, using 1 μM [^14C]spermine (32 Ci/mol) as substrate. Uptake activity was expressed per amount of DNA as fluorometrically determined using 3,4-diaminobenzoic acid (Simard, J., Dauvois, S., Haagensen, D. E., Lėvesque, C., Mėrand, Y. and Labrie, F. 1990. Endocrinology, 126: 3223-3231). For the determination of spermidine uptake activity in CHO-K1 cells, 80% confluent cell monolayers were rinsed twice with PBS and incubated for 20 minutes at 37° C. in 400 μl of buffer A (20 mM Tris-HCl, pH 7.4; 0.42 mM CaCl2; 0.41 mM MgSO4; 103 mM NaCl; 5.7 mM KCl; 1.1 mM D-glucose) containing 5 μM [^3H]spermidine (20 Ci/mol). Cell cultures were then washed twice with 1 ml PBS containing 5.7 mM sym-norspermidine. Cells were then lysed with 200-μl aliquot of 1 N NaOH and incubated for 30 minutes at 60° C. After neutralization with 200 μl of 1 N HCl, radioactivity was determined from a 250-μl of the cell lysate by scintillation counting. Uptake activity was expressed per amount of total cellular protein as determined by the method of Bradford (Bradford, M. M. 1976. Anal. Biochem. 72: 248-254). Non-specific binding of radioactive substrate was similarly determined in parallel for both cell lines after a 15 second-incubation with 400 μl of ice-cold uptake solution.
(§3) Kinetic analysis of polyamine transport was performed by determining uptake activity in the presence of a 3 μM [^3H]putrescine or 1 μM [^3H]spermidine plus increasing concentrations of nonradioactive substrate. K[…] Ki and Vmax values were then estimated by Lineweaver-Burke analysis. For competitive inhibitors, Ki values were also estimated by measuring uptake activity in the presence of logarithmically increasing concentrations of antagonist, and using the Cheng-Prusoff equation (Cheng, Y.-C. and Prusoff, W. H. 1973. Biochem. Pharmacol. 22: 3099-3108) by iterative curve fitting for a sigmoidal curve. For mixed competitive/noncompetitive inhibition, two methods were used to calculate kinetic constants. First, the equation [drawing 2] where v, s, and i are the transport velocity, substrate concentration and inhibitor concentration respectively, was used to calculate the inhibition constants for inhibitor/carrier complex formation (Ki) and carrier/inhibitor/substrate complex formation (Ki′) (Dixon, M. and Webb, E. C. 1976. Enzymes, 3rd Ed., Academic Press, San Diego, Calif.). Alternatively, the value of Ki for a mixed competitor/non-competitor was estimated from the intersect of equations v^−1 vs i at two different substrate concentrations (Dixon, M. and Webb, E. C. 1976. Enzymes, 3rd Ed., Academic Press, San Diego, Calif.). Intracellular Accumulation
(§4) In order to evaluate the effectiveness of dimeric triamines as polyamine transport inhibitors, we synthesized N,N′-bis(3-aminopropyl),N,N′-bis(4-aminobutyl)cystamine or BABAC (structure 1, FIG. 25; FIG. 31), and its thiol form N-(3-aminopropyl),N-(4-aminobutyl)cysteamine or AAC (FIG. 31) according to Scheme 4 described above (FIG. 30), using spermidine as a precursor polyamine. The ability of BABAC and AAC to inhibit the intracellular uptake of radio-labeled putrescine and spermidine in the ZR-75-1 human breast cancer cell line was then determined according to standard published procedures (Lessard, et al. and Poulin, et al.) Briefly, ZR-75-1 cells were grown for four days in twenty-four well plates in RPMI 1640 medium supplemented with 10% fetal bovine serum.

[6] = test system: polyamine transporter; assay: Inhibition of [14C]spermine uptake in ZR-75-1 cells; format: cell-based, human
Experimental: as §2, with “Spermine uptake was similarly determined, using 1 μM [^14C]spermine (32 Ci/mol) as substrate.” left out
as §3, §4

[7] = test system: polyamine transporter; assay: Inhibition of [3H]spermidine uptake in ZR-75-1 cells; format: cell-based, human; conditions: FIG. 32, 20 μM and 3 μM substrate, respectively, read-out: Apparent Ki, spermidine uptake
Experimental: as §2
as §3, with “Alternatively, the value of Ki for a mixed competitor/non-competitor was estimated from the intersect of equations v^−1 vs i at two different substrate concentrations (Dixon, M. and Webb, E. C. 1976. Enzymes, 3rd Ed., Academic Press, San Diego, Calif.). Intracellular Accumulation” left out
as §4

[8] = target: polyamine transporter; conditions: ZR-75-1 cells; data annotated a (Lessard et al. 1995); read-out: Km or Ki, spermidine transport; cited from earlier work
[9] = target: polyamine transporter; conditions: ZR-75-1 cells; data annotated a (Lessard et al. 1995); read-out: Km or Ki, putrescine transport; cited from earlier work
[10] = MESC: amino group neighboring the amide linkage; cited from earlier work
[11] = test system: ZR-75-1 cells; assay: Effect on ZR-75-1 cell proliferation (11 days, DNA content); format: cell-based, human; conditions: 50 μM
Experimental: as §1, with “3223-3231). Medium was changed every other day in these experiments because of the slow reaction of the compound with an unknown component present in the IMEM and RPMI 1640 medium formulation.” for “3223-3231).”
The biocompatibility of DESC, MESC, and DEASC was thus evaluated during a long-term (11-day) incubation with ZR-75-1 cells grown in RPMI 1640 containing 10% (v/v) FBS in the absence and presence of 1 mM aminoguanidine. […] Weak growth inhibition caused by the mixed MESC-cysteamine disulfide, however, apparently involved degradation by a copper amine oxidase.

[12] = test system: ZR-75-1 cells; assay: Time course of intracellular [3H]spermidine accumulation in presence of transport antagonists; format: cell-based, human; conditions: 200 μM CHX, after 4 hours
Experimental: The time course of intracellular accumulation of spermidine in the presence of transport antagonists was determined by incubating ZR-75-1 cells in 24-well plates with DESC (50 or 200 μM) or MESC (200 μM) in dissolved in MEZR medium containing 5 μM [^3H]spermidine in the presence or absence of cycloheximide (CHX, 200 μM), and harvesting at the indicated times for the determination of intracellular radioactive contents, as described above for polyamine uptake assays.

[13] = Stability in buffered aqueous solution; format: physicochemical; conditions: buffered at pH=7.0
[14] = FIG. 32, 20 μM and 3 μM substrate, respectively, read-out: Apparent Ki, putrescine uptake
[15] = FIG. 32, read-out: Apparent Ki, spermine uptake
[16] = this work, read-out: Km or Ki, spermine transport

SMILES: NCCCN(CCCN)Cc1ccc(CN(CCCN)CCCN)cc1 [TADAX, N,N,N′,N′-tetrakis(3-aminopropyl)-p-xylylenediamine]
Accumulation of the compound in cells [1]: no detectable accumulation | IC50 ([2]; ZR-75-1 cells): > 500000 nM | Ki [3]: 1500 nM

SMILES: NCCCC(N)(C(=O)O)C(F)F (racemic) [DFMO, D,L-α-difluoromethylornithine]
inhibition at 1000 µM [4]: ~50%

SMILES: NCCCNCCCN [sym-norspermidine, N-(3-aminopropyl)-1,3-diaminopropane, reference compound]
IC50 [2]: 6400 nM

SMILES: NCCCCN(CCS)CCCN [AAC, N-(3-aminopropyl),N-(4-aminobutyl)cysteamine]
Ki [5, 14]: 540 nM | Ki [6, 15]: 3900 nM | Ki [7]: 4370 nM

SMILES: NCCCCN [Putrescine, 1,4-butane-diamine]
Ki [6, 16]: 230 ± 130 nM | Ki [8]: 125000 ± 29000 nM | Ki [9]: 3700 ± 400 nM

SMILES: NCCCNCCCCNCCCN [Spermine, N,N′-bis-[3-aminopropyl]-1,4-butanediamine, reference compound]
Ki [5, 14]: 74.5 nM | Km ([6]; 3μM substrate (Example 11), read-out: Apparent Km, spermine transport): 0.6 µM | Ki [6, 16]: 200 ± 60 nM | pKa of secondary amino group of the spermine head [10]: 8.9-9.8 | Ki [9]: 330 ± 20 nM | Ki [7]: 400 nM | Effect on cell growth ([11]; with or without 1 mM aminoguanidine): acutely cytotoxic

SMILES: C[C@@H]1C[C@@H]([C@H](O)CC2CC(=O)NC(=O)C2)C(=O)[C@@H](C)C1 [CHX, cycloheximide, reference compound]
Increase in spermidine accumulation [12]: 4 fold

Stability in aqueous solutions [13]: stable for months
SMILES: NCCCNCCCC(NCCCN)C(=O)NCCSSCCN (stereo not drawn) [DEASC, N-[2,2′-dithio(ethyl,1-aminoethyl)]spermine-5-carboxamide]
Mode of inhibition of [3H]putrescine uptake ([5]; Lineweaver-Burke, DESC up to 100 μM, MESC up to 200 μM): mixed competitive/non-competitive type | Ki ([5]; mixed competitive/non-competitive model, read-out: Ki′ (carrier/inhibitor/putrescine complex formation)): 4100 nM | Ki ([5]; this work, DEASC: Ki of mixed competitive/non-competitive model, read-out: Ki, putrescine transport): 5300 ± 600 nM | Ki for [14C]spermine transport, fold higher than that of DESC ([6]; FIG. 2): about 5 fold | Ki [6, 16]: 16000 ± 3000 nM | Inhibition of cell proliferation ([11]; completely prevented by aminoguanidine): 20%

IC50 ([2]; ZR-75-1 cells): 17000 nM
SMILES: NCCCCN(CCCN)CCSSCCN(CCCN)CCCCN [BABAC, N,N′-bis(3-aminopropyl),N,N′-bis(4-aminobutyl)cystamine]
Ki [5, 14]: 150 nM | Ki [6, 15]: 2100 nM | Ki [7]: 680 nM
